Consider ten compounds from ChEMBL document CHEMBL1765007, “Synthesis and biological evaluation of new 2-alkylaminoethyl-1,1-bisphosphonic acids against Trypanosoma cruzi and Toxoplasma gondii targeting farnesyl diphosphate synthase” (Bioorg Med Chem, 2011).

Molecules are shown by their SMILES.

As usually defined, the IC50 is the concentration needed to halve the response being measured.

For assay [1], the system named is Trypanosoma cruzi. In words: Antiparasitic activity against Trypanosoma cruzi amastigotes infected in gamma-irradiated vero cells assessed as growth inhibition by fluorescence assay. Format: functional, organism-based. Conditions: light or radiation study.
Assay [2] has as its target T1, Farnesyl diphosphate synthase (Trypanosoma cruzi, UniProt Q8WS26).
T1 sequence (Q8WS26 whole entry): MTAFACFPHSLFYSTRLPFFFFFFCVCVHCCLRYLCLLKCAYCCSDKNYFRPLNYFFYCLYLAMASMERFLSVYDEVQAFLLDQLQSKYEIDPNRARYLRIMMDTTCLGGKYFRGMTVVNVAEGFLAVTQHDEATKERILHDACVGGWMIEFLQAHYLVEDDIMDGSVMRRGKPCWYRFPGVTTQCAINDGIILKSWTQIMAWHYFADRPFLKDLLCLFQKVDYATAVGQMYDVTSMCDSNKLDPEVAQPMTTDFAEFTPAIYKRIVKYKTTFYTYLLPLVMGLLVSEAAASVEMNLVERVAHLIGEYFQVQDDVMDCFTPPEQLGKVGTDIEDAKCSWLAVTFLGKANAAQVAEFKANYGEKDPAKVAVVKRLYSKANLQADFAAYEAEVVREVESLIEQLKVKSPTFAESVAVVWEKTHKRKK
In words: Inhibition of Trypanosoma cruzi FPPS after 30 mins using [14C]IPP by scintillation counting.

Assay [3] deals with T2, Farnesyl diphosphate synthase (Toxoplasma gondii, UniProt Q197X6).
T2 sequence (Q197X6 whole entry): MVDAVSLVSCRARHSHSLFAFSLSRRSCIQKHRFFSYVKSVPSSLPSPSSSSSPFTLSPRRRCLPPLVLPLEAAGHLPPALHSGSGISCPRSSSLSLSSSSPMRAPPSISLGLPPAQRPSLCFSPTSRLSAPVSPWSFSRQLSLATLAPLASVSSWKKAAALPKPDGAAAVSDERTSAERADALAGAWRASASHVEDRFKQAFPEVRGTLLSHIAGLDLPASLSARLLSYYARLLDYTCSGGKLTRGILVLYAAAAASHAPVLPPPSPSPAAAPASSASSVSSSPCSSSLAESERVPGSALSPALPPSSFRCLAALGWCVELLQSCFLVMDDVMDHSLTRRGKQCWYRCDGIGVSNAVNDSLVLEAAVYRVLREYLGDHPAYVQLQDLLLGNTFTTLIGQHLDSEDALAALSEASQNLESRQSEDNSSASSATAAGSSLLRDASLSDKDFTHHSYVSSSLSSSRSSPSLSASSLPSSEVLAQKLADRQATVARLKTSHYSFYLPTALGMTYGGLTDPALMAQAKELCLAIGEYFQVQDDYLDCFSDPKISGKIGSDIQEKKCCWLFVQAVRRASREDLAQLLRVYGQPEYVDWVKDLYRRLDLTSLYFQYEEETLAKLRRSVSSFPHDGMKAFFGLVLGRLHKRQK
Nature of the assay: Inhibition of Toxoplasma gondii FPPS after 30 mins using [14C]IPP by scintillation counting.

For assay [4], the system named is Toxoplasma gondii. Nature of the assay: Antiparasitic activity against Toxoplasma gondii tachyzoite expressing red fluorescence protein assessed as growth inhibition by fluorescence plate reader. It counts as functional, organism-based.
Assay [5] relates to Toxoplasma gondii. Nature of the assay: Antiparasitic activity against Toxoplasma gondii assessed as growth inhibition. Format: functional, organism-based.

As for `CCCCCCCCCCCCNCC(P(=O)(O)O)P(=O)(O)O`, the 50% inhibitory concentration (IC50) in assay [1] was found to be 0.67 µM; in assay [2], 0.811 µM; in assay [3], 0.093 µM; in assay [4], 6.23 µM.

Regarding `CCCCCCCCCCCNCC(P(=O)(O)O)P(=O)(O)O`, the IC50 in assay [1] is 5.13 µM; in assay [2], 0.856 µM; in assay [3], 0.868 µM; in assay [4], above 10 µM.

Take `CCCCCCCCCNCC(P(=O)(O)O)P(=O)(O)O`: the IC50 in assay [1] was above 10 µM; in assay [2] it was 0.43 µM; in assay [3], 0.44 µM; in assay [4], above 10 µM.

`CCCCCCCCCCCCCCNCC(P(=O)(O)O)P(=O)(O)O`: the IC50 in assay [1] is above 10 µM; in assay [2], above 1 µM; in assay [3], 0.292 µM; in assay [4], 11.3 µM.

For `CCCCCCCCCCCCCCCCCCNCC(P(=O)(O)O)P(=O)(O)O`, the IC50 in assay [1] was above 10 µM; in assay [4], 5.29 µM.

Turning to `O=C(Cn1ccnc1[N+](=O)[O-])NCc1ccccc1` [BENZNIDAZOLE], the half-inhibitory concentration (IC50) in assay [1] turned out to be 2.77 µM.

As to `CCCCCCCCCCCCCCCCNCC(P(=O)(O)O)P(=O)(O)O`, the half-inhibitory concentration (IC50) in assay [1] is 2.19 µM; in assay [4] it was 4.13 µM.

As to `CCCCCCNCC(P(=O)(O)O)P(=O)(O)O`, the IC50 is 0.84 µM in assay [1] and 9.37 µM in assay [5].

Take `O=P(O)(O)C(CNCc1ccccc1)P(=O)(O)O`: the IC50 in assay [1] is above 10 µM; in assay [2] it was above 1 µM; in assay [4], above 10 µM.

On to `CCCCCCCCCCNCC(P(=O)(O)O)P(=O)(O)O`, for which the IC50 was above 10 µM in assay [1], above 1 µM in assay [2], 0.068 µM in assay [3] and above 10 µM in assay [4].
